Data published in US10980778B2, “Methods for treating multiple osteochondroma (MO)” (Clementia Pharmaceuticals Inc., priority 2016, dated 2021).
Like-named read-outs stand apart in the source and are kept apart here.

How the values were obtained:
Fsp1-Ext1CKO mice [1] = assay: Crown-rump length in MO mouse model; type: in vivo
Experimental: Crown-rump length, defined as mouse body length from snout to base of the tail, was measured using a ruler in vehicle and palovarotene treated Fsp1-Ext1CKO mice and untreated wild-type (WT) littermates at baseline (Study Day 1) and, 3 and 4 weeks post initiation of palovarotene treatment (Study Day 21 and 28, respectively). As show in FIG. 3, palovarotene treatment had no effect on crown-rump length after 4 weeks of daily oral treatment in Fsp1-Ext1CKO mice compared to vehicle controls.

Fsp1-Ext1CKO mice [2] = assay: Dose response of palovarotene to inhibit OC formation (P14 and P21 cohorts); type: in vivo; settings: for EC50 at AUC0-24 hr (percent decrease in total OCs at rib and limb bones): extrapolated exposure
Experimental: Nonclinical pharmacology data: Fsp1-Ext1CKO mice were administered three doses of palovarotene (0.269 mg/kg [low], 0.882 mg/kg [mid], or 1.764 mg/kg [high]) for 28 consecutive days starting treatment at Day 14 postpartum (P14 cohort), or for 21 consecutive days starting at Day 21 postpartum (P21 cohort).
To determine the dose exposure response, exposure in this study was extrapolated based on pharmacokinetic data obtained from adult wild-type (WT) mice with the assumption that pharmacokinetics in adult WT mice are similar to juvenile Fsp1-Ext 1CKO mice.

Fsp1-Ext1^CKO mice = assay: Effect of palovarotene on osteochondroma (OC) formation, alcian blue whole-mount skeletal staining of rib bones; type: in vivo
Text: Biallelic conditional knock-out (CKO) of Ext1 using a Cre transgene driven by an Fsp1 promotor) (Fsp1-Ext1^CKO in mice leads to the formation of phenotypes characteristic of MO. Fsp1 expression in developing bone is restricted to the perichondrium and periosteum. Perichondrium-targeted Ext1 deletion in mice causes osteochondromatogenesis in long bones, vertebrae and ribs. Fsp1-Ext1^CKO mice appear normal at birth, present mild bone deformity by P (postnatal day) 28 and have normal life span. In these mice, bony protrusions consisting of bony tuberosities with a cartilage cap are first detectable after P14. These protrusions are consistent with the histological features of osteochondromas in human MO. By P28, all animals develop multiple osteochondromas that can be readily observed in whole-mount skeletal preparations. This phenotype supports the relevance of the Fsp1-Ext1^CKO mouse as a preclinical model of MO. It also mimics the findings observed in a previously developed mouse model of MO, the Col2a1-Ext1^CKO mice.
The therapeutic effect of palovarotene in MO was tested in the Fsp1-Ext1^CKO mouse model. The CKO mice were treated with palovarotene (1.05 mg/kg) or vehicle by oral gavage daily. Treatment was initiated on day 14 postpartum and continued daily for 4 weeks. The effect of palovarotene on the formation of osteochondromas (OCs) in the mouse model was evaluated using whole-mount skeletal preparation. At end of treatment, the mice were euthanized by CO2 inhalation and the carcasses were eviscerated and fixed in 95% ethanol overnight. The preparations were stained with alcian blue for 3 days, rinsed in 95% ethanol, and incubated in 2% KOH for 1-2 days. Stained preparations were cleaned in 20% glycerol/1% KOH for 14 days and transferred to 50% glycerol/50% ethanol for photography and storage. By examination under a dissecting microscope, an alcian blue-positive protrusion that was clearly distinguishable was considered as an OC. OCs were identified and counted in each of the 24 rib bones from each mouse.
The sum of these counts (total number of OCs at the rib bones) and the mean occurrence of response (number of rib bones showing no OCs vs. number of rib bones showing at least one OC) were reported for each treatment group.

[3] = Observed pharmacokinetic parameters, fixed and weight-based dosing regimen; type: in vivo, human; settings: for AUC(0-t): human, in vivo, oral; for AUC Ratio (A/P) Mean (SD) / AUC Ratio (A/P) Median / AUC Ratio (A/P) Min / AUC Ratio (A/P) max: observed vs predicted
Experimental: Table 4 summarizes the pharmacokinetic parameters of mean and median AUC0-24 values for subjects receiving 2.5 mg and 5.0 mg equivalent doses of palovarotene. Skeletally mature subjects received fixed dose regimens, while the skeletally immature subjects <18 years old were dosed via weight adjusted equivalent doses.
One other parameter known to impact systemic exposure of palovarotene is food. For the clinical studies, all subjects are instructed to administer study medication at approximately the same time each day, and following a full meal, although the exact amount consumed is not recorded.

[4] = mean occurrence of 24 rib bones, 1.05 mg/kg daily × 28 days, p=0.0039 vs vehicle (Fisher's exact test)
[5] = PVO 2.5 mg Weight-Adjusted Equivalent
[6] = PVO 5 mg Weight-Adjusted Equivalent

CC1(C)CCC(C)(C)c2cc(Cn3cccn3)c(/C=C/c3ccc(C(=O)O)cc3)cc21 [Palovarotene, 4-[(1E)-2-[5,6,7,8-Tetrahydro-5,5,8,8-tetramethyl-3-(1H-pyrazol-1-ylmethyl)-2-naphthalenyl]-ethenyl]-benzoic acid]
Effect on crown-rump length (Fsp1-Ext1CKO mice [1]; after 4 weeks of daily oral treatment, compared to vehicle controls): no effect | Long bone growth (Fsp1-Ext1CKO mice [1]; summary of the Examples): able to maintain long bone growth | Normal bone growth in the animal (Fsp1-Ext1CKO mice [1]; summary of the Examples): did not interfere with normal bone growth | Occurrence of OCs (Fsp1-Ext1CKO mice [2]; 0.269, 0.882 or 1.764 mg/kg, 28 days from P14 or 21 days from P21, vs vehicle controls): inhibited the occurrence of OCs in a dose-dependent manner | Efficacy P14 cohort compared to P21 cohort (Fsp1-Ext1CKO mice [2]; 28 days from P14 vs 21 days from P21): Greater efficacy was observed with earlier and longer dosing in the P14 cohort | EC50 at AUC0-24 hr (percent decrease in total OCs at rib and limb bones) (Fsp1-Ext1CKO mice [2]; P14 cohort): 57 to 62 ng·h/mL | EC50 at AUC0-24 hr (percent decrease in total OCs at rib and limb bones) (Fsp1-Ext1CKO mice [2]; P21 cohort): 125 to 173 ng·h/mL | Total number of OCs at the rib bones Mean (95% CI) (Fsp1-Ext1^CKO mice; 1.05 mg/kg daily × 28 days, oral gavage from day 14 postpartum, n=9, vehicle 147.3): 28.33 (23.23-33.43) | Effect on total number of OCs per rib bone and formation of OCs (Fsp1-Ext1^CKO mice; 1.05 mg/kg daily, 4 weeks, vs vehicle): reduced the total number of OCs per rib bone and prevent the formation of OCs | Number of rib bones showing at least one OC (Fsp1-Ext1^CKO mice; [4]): 16 | Number of rib bones showing no OC (Fsp1-Ext1^CKO mice; [4]): 8 | Cartilage hyperplasia (Fsp1-Ext1^CKO mice; summary of the Examples): reduced cartilage hyperplasia | Number and size of osteochondromas observed (Fsp1-Ext1^CKO mice; summary of the Examples): reduced the number and size of osteochondromas observed | Observed exposures using weight based dosing compared with fixed dosing ([3]; 2.5 mg and 5.0 mg equivalent doses, few subjects in 2.5 mg group): tended to be lower than fixed dosing | AUC(0-t) ([3]; 2.5 mg, PVO 2.5 mg Fixed Dose, N=4, read-out: AUC0-24 h Mean (SD)): 0.176 µg·h/mL | AUC(0-t) ([3]; 2.5 mg, PVO 2.5 mg Fixed Dose, N=4, read-out: AUC0-24 h Median): 0.149 µg·h/mL | AUC(0-t) ([3]; 2.5 mg, PVO 2.5 mg Fixed Dose, N=4, read-out: AUC0-24 h Min): 0.107 µg·h/mL | AUC(0-t) ([3]; 2.5 mg, PVO 2.5 mg Fixed Dose, N=4, read-out: AUC0-24 h max): 0.031 µg·h/mL | AUC(0-t) ([3]; 2.5 mg, PVO 2.5 mg Weight-Adjusted Equivalent, N=3, read-out: AUC0-24 h Mean (SD)): 0.098 µg·h/mL | AUC(0-t) ([3]; 2.5 mg, PVO 2.5 mg Weight-Adjusted Equivalent, N=3, read-out: AUC0-24 h Median): 0.078 µg·h/mL | AUC(0-t) ([3]; 2.5 mg, PVO 2.5 mg Weight-Adjusted Equivalent, N=3, read-out: AUC0-24 h Min): 0.037 µg·h/mL | AUC(0-t) ([3]; 2.5 mg, PVO 2.5 mg Weight-Adjusted Equivalent, N=3, read-out: AUC0-24 h max): 0.179 µg·h/mL | AUC(0-t) ([3]; 5 mg, PVO 5 mg Fixed Dose, N=15, read-out: AUC0-24 h Mean (SD)): 0.347 µg·h/mL | AUC(0-t) ([3]; 5 mg, PVO 5 mg Fixed Dose, N=15, read-out: AUC0-24 h Median): 0.32 µg·h/mL | AUC(0-t) ([3]; 5 mg, PVO 5 mg Fixed Dose, N=15, read-out: AUC0-24 h Min): 0.144 µg·h/mL | AUC(0-t) ([3]; 5 mg, PVO 5 mg Fixed Dose, N=15, read-out: AUC0-24 h max): 0.667 µg·h/mL | AUC(0-t) ([3]; 5 mg, PVO 5 mg Weight-Adjusted Equivalent, N=6, read-out: AUC0-24 h Mean (SD)): 0.249 µg·h/mL | AUC(0-t) ([3]; 5 mg, PVO 5 mg Weight-Adjusted Equivalent, N=6, read-out: AUC0-24 h Median): 0.218 µg·h/mL | AUC(0-t) ([3]; 5 mg, PVO 5 mg Weight-Adjusted Equivalent, N=6, read-out: AUC0-24 h Min): 0.139 µg·h/mL | AUC(0-t) ([3]; 5 mg, PVO 5 mg Weight-Adjusted Equivalent, N=6, read-out: AUC0-24 h max): 0.363 µg·h/mL | AUC Ratio (A/P) Mean (SD) ([3]; PVO 2.5 mg Fixed Dose): 1.1 (0.7) | AUC Ratio (A/P) Median ([3]; PVO 2.5 mg Fixed Dose): 0.9 | AUC Ratio (A/P) Min ([3]; PVO 2.5 mg Fixed Dose): 0.6 | AUC Ratio (A/P) max ([3]; PVO 2.5 mg Fixed Dose): 2.1 | AUC Ratio (A/P) Mean (SD) [3, 5]: 0.8 (0.6) | AUC Ratio (A/P) Median [3, 5]: 0.6 | AUC Ratio (A/P) Min [3, 5]: 0.3 | AUC Ratio (A/P) max [3, 5]: 1.4 | AUC Ratio (A/P) Mean (SD) ([3]; PVO 5 mg Fixed Dose): 1.3 (0.7) | AUC Ratio (A/P) Median ([3]; PVO 5 mg Fixed Dose): 1.1 | AUC Ratio (A/P) Min ([3]; PVO 5 mg Fixed Dose): 0.6 | AUC Ratio (A/P) max ([3]; PVO 5 mg Fixed Dose): 2.9 | AUC Ratio (A/P) Mean (SD) [3, 6]: 1.0 (0.3) | AUC Ratio (A/P) Median [3, 6]: 0.9 | AUC Ratio (A/P) Min [3, 6]: 0.5 | AUC Ratio (A/P) max [3, 6]: 1.4 | AUCA/P ratio ([3]; overall, observed vs predicted exposures): ~1
